Measurements: patent publication US20120214862A1, “MODULATION OF FACTOR 7 EXPRESSION” (ISIS Pharmaceuticals, Inc., priority 2009, published 2012)
In the oligonucleotide strings, read from the 5' end, every base follows the letter of its sugar. An asterisk marks phosphorothioate; unmarked linkages are phosphodiester. Other units and linkages are bracketed, terminal groups are in braces. A string of capitals states the bases alone. e = 2'-O-(2-methoxyethyl) (MOE); [5mC] = 5-methylcytosine; d = 2'-deoxy (DNA)

Test system: human Factor 7 mRNA
Assay: Antisense inhibition of human Factor 7 mRNA in HepB3 cells, lipofectin, 50 nM, real-time RT-PCR
Type: cell-based
Settings: Example 1; HepB3 cells, lipofectin, 50 nM, ~24 h, relative to untreated control cells
Procedure, shortened: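 HepB3 cells were transfected by lipofectin with 50 nM antisense oligonucleotide and harvested after about 24 h. Factor 7 mRNA was measured by real-time RT-PCR (primer probe set RTS 2927 in some runs), normalized to RIBOGREEN total RNA, and reported as percent inhibition versus untreated control.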

Row | Substance | % Inhibition (human Factor 7 mRNA)
1 | 407912 (antisense e[5mC]*e[5mC]*e[5mC]*eG*eG*dT*dA*dG*dT*dG*dG*dG*dT*dG*dG*e[5mC]*eA*eT*eG*eT) [compound 407912] | 46%
2 | 407626 (antisense eT*e[5mC]*eT*eT*eG*dA*dT*dT*dT*dT*dG*dT*d[5mC]*dG*dA*eA*eA*e[5mC]*eA*eG) [compound 407626] | 82%
3 | 407635 (antisense eT*eG*eG*e[5mC]*e[5mC]*d[5mC]*d[5mC]*dA*dG*d[5mC]*dT*dG*dA*d[5mC]*dG*eA*eT*eG*e[5mC]*e[5mC]) [compound 407635] | 64%
4 | 407963 (antisense eA*eG*eA*eG*e[5mC]*dA*dG*dG*dG*dT*dG*d[5mC]*d[5mC]*dT*dT*eG*eG*eA*eA*eG) [compound 407963] | 33%
5 | 407941 (antisense eG*eA*eG*eA*e[5mC]*dG*d[5mC]*dA*dG*d[5mC]*d[5mC]*dG*dT*dT*dT*eA*eT*eT*eG*eT) [compound 407941] | 65%
6 | 407651 (antisense eA*eG*e[5mC]*e[5mC]*eT*d[5mC]*dA*dA*dA*d[5mC]*dA*dT*d[5mC]*dT*dA*eT*e[5mC]*eA*eA*eA) [compound 407651] | 32%
7 | 407886 (antisense eG*e[5mC]*eA*eG*eA*dG*dG*dA*dG*d[5mC]*d[5mC]*dT*dG*dA*dG*eG*eG*e[5mC]*e[5mC]*eT) [compound 407886] | 72%
8 | 407601 (antisense e[5mC]*eA*eG*e[5mC]*e[5mC]*d[5mC]*dT*dG*dA*dA*dG*d[5mC]*d[5mC]*d[5mC]*dA*eA*eG*e[5mC]*eA*eG) [compound 407601] | 52%
9 | 407631 (antisense eG*eG*eG*e[5mC]*eA*d[5mC]*d[5mC]*dA*d[5mC]*dA*dT*dG*dG*dT*d[5mC]*eA*eG*eT*eG*eA) [compound 407631] | 66%
10 | 407622 (antisense eT*e[5mC]*eA*e[5mC]*e[5mC]*dA*dA*d[5mC]*dA*dA*d[5mC]*dA*dG*dG*dA*e[5mC]*e[5mC]*eT*eG*e[5mC]) [compound 407622] | 55%
11 | 407657 (antisense eG*eG*eG*eA*e[5mC]*dT*d[5mC]*dA*dG*d[5mC]*dA*dA*dG*dA*dG*eT*eG*e[5mC]*eA*eG) [compound 407657] | 26%
12 | 407610 (antisense eA*eG*eG*eG*eA*dG*dG*d[5mC]*dA*dG*dA*dA*dG*d[5mC]*dA*eG*eA*eT*eA*eT) [compound 407610] | 31%

Same assay, conditions: Example 4; HepB3 cells, lipofectin, 50 nM, ~24 h, relative to untreated control

Row | Substance | % Inhibition (human Factor 7 mRNA)
13 | 422118 (antisense e[5mC]*eG*eG*eA*eA*dG*dA*dA*dG*dG*dG*dA*d[5mC]*dG*dG*eA*eA*eG*eG*eT) [compound 422118] | 15%
14 | 422266 (antisense e[5mC]*eG*d[5mC]*dG*dG*dA*dA*dG*dA*dA*dG*dG*dG*dA*d[5mC]*eG*eG*eA*eA*eG) [compound 422266] | 13%
15 | 422187 (antisense e[5mC]*eG*eG*dA*dA*dG*dA*dA*dG*dG*dG*dA*d[5mC]*dG*dG*dA*dA*eG*eG*eT) [compound 422187] | 28%

Same assay, conditions: HepB3 cells, lipofectin, 50 nM antisense oligonucleotide, approximately 24 hours, primer probe set RTS 2927, relative to untreated control

Row | Substance | % Inhibition of human Factor 7 mRNA levels
16 | 416456 (antisense e[5mC]*eT*eG*e[5mC]*eG*d[5mC]*d[5mC]*dA*d[5mC]*d[5mC]*d[5mC]*dG*d[5mC]*d[5mC]*dG*eG*e[5mC]*eT*e[5mC]*eT) [compound 416456] | 58%
17 | 416554 (antisense eA*eA*eA*eG*eA*dT*d[5mC]*d[5mC]*d[5mC]*dA*d[5mC]*d[5mC]*dT*d[5mC]*dA*eA*eA*eG*eA*eG) [compound 416554] | 7%
18 | 416480 (antisense eA*eA*eG*eT*eG*dA*dG*dA*dG*d[5mC]*dT*dA*dA*dA*d[5mC]*eA*eA*e[5mC]*e[5mC]*eG) [compound 416480] | 25%
19 | 416464 (antisense eA*eA*e[5mC]*eA*eT*dG*dT*dA*d[5mC]*dT*d[5mC]*d[5mC]*dG*dT*dG*eA*eT*eA*eT*eT) [compound 416464] | 53%
20 | 416545 (antisense eA*eG*eA*eA*eA*d[5mC]*dA*dT*d[5mC]*d[5mC]*d[5mC]*dA*dT*dT*dT*eT*e[5mC]*e[5mC]*e[5mC]*eA) [compound 416545] | 8%
21 | 416522 (antisense eG*eG*e[5mC]*eT*eG*dA*dG*dA*dA*dT*dT*dG*d[5mC]*d[5mC]*d[5mC]*eA*eG*eG*eG*e[5mC]) [compound 416522] | 25%
22 | 416429 (antisense eA*e[5mC]*eG*e[5mC]*e[5mC]*dG*dT*dG*dG*dG*d[5mC]*dT*dT*d[5mC]*d[5mC]*eT*e[5mC]*e[5mC]*eT*eG) [compound 416429] | 47%
23 | 416569 (antisense eG*e[5mC]*e[5mC]*eT*eG*dG*dT*dG*dT*dG*d[5mC]*dA*d[5mC]*dA*d[5mC]*eA*eT*eT*eG*eT) [compound 416569] | 12%
24 | 416436 (antisense eA*e[5mC]*eT*eG*eG*dT*d[5mC]*d[5mC]*d[5mC]*d[5mC]*dA*dT*d[5mC]*dA*d[5mC]*eT*eG*eT*eA*eA) [compound 416436] | 27%
25 | 416525 (antisense eT*eA*eT*eG*eA*dG*dT*d[5mC]*d[5mC]*dT*dT*d[5mC]*dT*dA*dG*eT*eG*eA*eA*eT) [compound 416525] | 5%
26 | 416538 (antisense e[5mC]*eG*eT*eG*eG*dA*d[5mC]*dT*dG*dA*dT*d[5mC]*d[5mC]*dA*dA*eA*eG*eG*eA*e[5mC]) [compound 416538] | 46%

Same assay, conditions: HepB3 cells; gapmers (5-10-5, 3-14-3, 2-13-5 MOE) targeted to nucleobases 4868 to 4899 of SEQ ID NO: 1

Row | Substance | % Inhibition of human Factor 7 mRNA levels
27 | 422139 (antisense eT*eT*e[5mC]*eT*eG*d[5mC]*dA*dG*dG*dA*dG*d[5mC]*dG*dG*d[5mC]*e[5mC]*eT*eA*eA*eA) [compound 422139] | 66%

Same assay, conditions: HepB3 cells; gapmers targeted to nucleobases 11830 to 11869 of SEQ ID NO: 1 (Table 9)

Row | Substance | % Inhibition of human Factor 7 mRNA levels
28 | 422103 (antisense eG*e[5mC]*eT*eG*eA*dG*dG*dA*dG*dA*d[5mC]*dA*dA*dT*dG*eG*eT*e[5mC]*eA*eG) [compound 422103] | 38%
29 | 422167 (antisense eG*eA*eG*dG*dA*dG*dA*d[5mC]*dA*dA*dT*dG*dG*dT*d[5mC]*dA*dG*eG*eG*e[5mC]) [compound 422167] | 53%
30 | 422155 (antisense eG*eT*e[5mC]*dA*dG*dG*dG*d[5mC]*dT*dG*dG*dT*dT*dT*dT*dG*dG*eA*eG*eG) [compound 422155] | 34%
31 | 422166 (antisense eA*eG*eG*dA*dG*dA*d[5mC]*dA*dA*dT*dG*dG*dT*d[5mC]*dA*dG*dG*eG*e[5mC]*eT) [compound 422166] | 63%
32 | 422101 (antisense eT*eG*eA*eG*eG*dA*dG*dA*d[5mC]*dA*dA*dT*dG*dG*dT*e[5mC]*eA*eG*eG*eG) [compound 422101] | 42%

Same assay, conditions: HepB3 cells; gapmers targeted to nucleobases 13760 to 13789 of SEQ ID NO: 1 (Table 10)

Row | Substance | % Inhibition of human Factor 7 mRNA levels
33 | 416456 (antisense e[5mC]*eT*eG*e[5mC]*eG*d[5mC]*d[5mC]*dA*d[5mC]*d[5mC]*d[5mC]*dG*d[5mC]*d[5mC]*dG*eG*e[5mC]*eT*e[5mC]*eT) [compound 416456] | 50%
34 | 422258 (antisense eG*e[5mC]*d[5mC]*dA*d[5mC]*d[5mC]*d[5mC]*dG*d[5mC]*d[5mC]*dG*dG*d[5mC]*dT*d[5mC]*eT*eG*e[5mC]*eT*e[5mC]) [compound 422258] | 66%
35 | 422261 (antisense eT*eG*d[5mC]*dG*d[5mC]*d[5mC]*dA*d[5mC]*d[5mC]*d[5mC]*dG*d[5mC]*d[5mC]*dG*dG*e[5mC]*eT*e[5mC]*eT*eG) [compound 422261] | 47%
